IC50 data for 1 molecule are collected here from PMC7781520 (Channels, 2020).

The target of this assay is Kv1.3 voltage-gated K+ channel (Homo sapiens, UniProt P22001). The class given is cell-based.
Kv1.3 voltage-gated K+ channel, sequence (P22001 whole entry): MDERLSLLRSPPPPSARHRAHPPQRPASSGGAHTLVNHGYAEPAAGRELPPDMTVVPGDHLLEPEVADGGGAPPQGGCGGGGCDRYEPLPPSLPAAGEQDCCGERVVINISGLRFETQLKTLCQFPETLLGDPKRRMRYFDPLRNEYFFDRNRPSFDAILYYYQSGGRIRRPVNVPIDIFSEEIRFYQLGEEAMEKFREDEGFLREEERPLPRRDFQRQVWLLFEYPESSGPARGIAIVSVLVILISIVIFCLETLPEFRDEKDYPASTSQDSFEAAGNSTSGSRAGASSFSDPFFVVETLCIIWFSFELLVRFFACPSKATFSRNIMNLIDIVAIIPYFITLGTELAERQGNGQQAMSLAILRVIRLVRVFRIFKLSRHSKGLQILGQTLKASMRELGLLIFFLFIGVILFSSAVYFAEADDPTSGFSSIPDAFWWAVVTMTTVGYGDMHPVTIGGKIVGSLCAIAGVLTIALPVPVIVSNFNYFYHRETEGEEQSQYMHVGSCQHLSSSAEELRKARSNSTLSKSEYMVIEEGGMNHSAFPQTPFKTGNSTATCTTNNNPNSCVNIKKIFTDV

As to `CC[N+](CC)(CC)CC` [TEA+], the IC50 (commonly the midpoint of a concentration-inhibition curve) worked out at 10.3 ± 0.71 mM.
